# Tested on: Mdr2−/− mice
# Test: In vivo animal model of primary sclerosing cholangitis (Mdr2-/- mice)
# Details: daily oral gavage for 2-4 weeks, vs vehicle
# From the text: A genetic mice with targeted disruption of the Multidrug resistant Mdr2 (Abcb4) gene encoding a canalicular phospholipid flippase (Mdr2−/− mice) spontaneously develop sclerosing cholangitis with macroscopic and microscopic features of human Primary sclerosing cholangitis. Bile duct injury in these mice is linked to defective biliary phospholipid secretion resulting in an increased concentration of free non-micellar bile acids which subsequently cause bile duct epithelial cell (cholangiocyte) injury, pericholangitis, periductal fibrosis with ductular proliferation and finally sclerosing cholangitis. […] In analogy to the Mdr2−/− mouse model of sclerosing cholangitis, Multidrug resistant protein MDR3/ABCB4 (the human orthologue of rodent Mdr2/Abcb4) defects play a role in the pathogenesis of various cholangiopathies in humans. MDR3 variants play a role as a modifier gene in the pathogenesis of various cholangiopathies such as PSC, Primary Biliary cirrhosis (PBC) and adulthood idiopathic ductopenia/billary fibrosis.
# Mdr2−/− mice were given daily oral doses of the compound of Example 14 by gavage for 2-4 weeks and controls were dosed the vehicle in the same way. Serum liver tests, liver histology and fibrosis were investigated. The compound of Example 14 improves liver tests, liver histology and fibrosis.
smiles,measurement,value
"CCCCC1(CCCC)CN(c2ccccc2)c2cc(SC)c(OCC(=O)N[C@@H](C(=O)NCC(=O)O)c3ccccc3)cc2S(=O)(=O)C1 [Example 14, 1,1-Dioxo-3,3-dibutyl-5-phenyl-7-methylthio-8-(N—{(R)-1′-phenyl-1′-[N′-(carboxymethyl)carbamoyl]methyl}carbamoylmethoxy)-2,3,4,5-tetrahydro-1,5-benzothiazepine]",Serum liver tests,improves
